Key:
cells = settings: cited from earlier work
system xc− = target: T1, system xc− (Homo sapiens, UniProt Q9UPY5); assay: in vitro screening assay of system xc− (14C-cystine uptake, 3H-glutamate) in 1321N1 cells; format: cell-based; settings: human glial cells from brain astrocytoma (1321N1)
T1 construct: a cell line with high system xc− expression; endogenous in cells; host or cells: 1321N1 human astrocytoma cells
T1 sequence (Q9UPY5 1-501): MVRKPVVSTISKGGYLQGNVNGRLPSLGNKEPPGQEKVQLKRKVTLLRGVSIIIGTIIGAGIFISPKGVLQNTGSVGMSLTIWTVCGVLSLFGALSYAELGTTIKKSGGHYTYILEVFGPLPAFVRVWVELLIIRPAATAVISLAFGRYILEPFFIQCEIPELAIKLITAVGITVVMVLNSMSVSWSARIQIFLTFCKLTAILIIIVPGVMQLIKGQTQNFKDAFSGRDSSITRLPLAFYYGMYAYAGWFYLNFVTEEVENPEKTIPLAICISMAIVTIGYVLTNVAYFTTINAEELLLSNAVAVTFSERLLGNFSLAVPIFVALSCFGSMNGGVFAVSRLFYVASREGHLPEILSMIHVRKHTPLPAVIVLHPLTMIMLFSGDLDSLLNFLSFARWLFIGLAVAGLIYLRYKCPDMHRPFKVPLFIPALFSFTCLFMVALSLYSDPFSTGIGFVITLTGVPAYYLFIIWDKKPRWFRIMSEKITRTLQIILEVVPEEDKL
T1 sequence (P08195 1-529 partner): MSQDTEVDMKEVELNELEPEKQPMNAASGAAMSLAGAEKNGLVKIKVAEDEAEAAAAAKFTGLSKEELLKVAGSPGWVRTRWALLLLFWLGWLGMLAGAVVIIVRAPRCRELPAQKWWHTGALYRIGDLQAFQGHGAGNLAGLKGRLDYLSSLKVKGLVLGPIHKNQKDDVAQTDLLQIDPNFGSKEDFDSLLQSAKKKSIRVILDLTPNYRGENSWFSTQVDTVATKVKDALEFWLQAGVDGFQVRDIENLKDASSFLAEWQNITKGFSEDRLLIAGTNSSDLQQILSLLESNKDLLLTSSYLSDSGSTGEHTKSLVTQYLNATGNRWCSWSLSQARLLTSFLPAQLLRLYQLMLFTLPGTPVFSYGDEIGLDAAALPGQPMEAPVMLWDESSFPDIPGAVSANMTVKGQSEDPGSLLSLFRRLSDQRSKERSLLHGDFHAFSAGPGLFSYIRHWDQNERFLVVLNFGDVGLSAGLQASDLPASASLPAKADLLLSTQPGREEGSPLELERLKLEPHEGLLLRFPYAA
Source text: Using an in vitro screening assay conducted in human glial cells from brain astrocytoma (1321N1), a cell line with high system xc− expression, the compound with the following formula: […]

[1] = elevated plus maze (EPM) model of anxiolytic-like activity; format: in vivo; settings: orally-active
[2] = pre-pulse inhibition (PPI) model of antipsychotic-like activity; format: in vivo; settings: orally-active
[3] = cited from earlier work
mice treated with MPTP = settings: cited from earlier work
brain of rats = settings: systemic administration; cited from earlier work
[4] = tested on: alpha-synuclein overexpressing mice; settings: mouse, in vivo; cited from earlier work
brain of gerbils = settings: systemic administration; cited from earlier work
[5] = intravenous administration, clinical experiments; cited from earlier work

For CC(=O)N[C@H](CS)C(N)=O, the “protection of cells from neurotoxicity induced by rotenone” value (cells) is given as “protected cells from neurotoxicity”.
With O=C(Cc1ccccc1)N[C@@H](CSC(c1ccccc1)(c1ccccc1)c1ccccc1)C(=O)O the “3H-glutamate (glutamate release)” value (system xc−) was “significant elevations”, the “uptake of 14C-cystine” value (system xc−) was “robust and significant decrease” and the “behavioral effects in EPM model” value [1] was “significant behavioral effects”. The “behavioral effects in PPI model” value [2] was “significant behavioral effects”.
For CC(=O)N[C@@H](CS)C(=O)O [NAC, N-acetylcysteine], the solubility characteristics [3] is given as “poor”, the “neuroprotective effect in different MPTP mouse models” value (mice treated with MPTP; Aoyama et al., 2008, Perry et al., 1985) is given as “partial neuroprotective effect” and the “therapeutic potential in MPTP-treated mice” value (mice treated with MPTP; mouse, in vivo) is given as “exhibited therapeutic potential”. The “protection against oxidative stress in the brain” value (brain of rats) was “provides protection against oxidative stress”, the “therapeutic potential in alpha-synuclein overexpressing mice” value [4] was “exhibited therapeutic potential” and the “protection against oxidative stress in the brain” value (brain of gerbils) was “provides protection against oxidative stress”.
For N[C@@H](CCC(=O)N[C@@H](CS)C(=O)NCC(=O)O)C(=O)O [glutathione], the solubility characteristics [3] is given as “poor” and the “reduction of motor impairment and disability” value [5] is given as 40%.

— patent US20130338165A1 (Promentis Pharmaceuticals, Inc., priority 2012, published 2013)
